Measurements from patent US12030877B2, “Prostaglandin E synthase inhibitors and methods for utilizing the same” (University of Kentucky Research Foundation, priority 2016, dated 2024).
Like-named read-outs stand apart in the source and are kept apart here.

Key:
[1] = biological target: T1, mPGES-1 (Homo sapiens, UniProt O14684); settings: background, cited from earlier work
T1 sequence (O14684 1-152): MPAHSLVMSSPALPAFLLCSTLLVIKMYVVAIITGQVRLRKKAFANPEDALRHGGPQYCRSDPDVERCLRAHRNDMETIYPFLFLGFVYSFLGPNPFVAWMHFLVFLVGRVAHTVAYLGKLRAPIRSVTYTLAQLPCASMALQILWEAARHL

[2] = biological target: T2, mPGES-1 Mouse enzyme (Mus musculus, UniProt Q9JM51); assay: mPGES-1 enzyme activity assay (PGE2 enzyme immunoassay), mouse enzyme; type: biochemical; settings: compound at a concentration of 10 μM; read-out: % inhibition of the compound against mPGES-1, Mouse enzyme
T2 construct: made in house; host or cells: FreeStyle 293-F cells, crude microsomal preparation
T2 sequence (Q9JM51 1-153): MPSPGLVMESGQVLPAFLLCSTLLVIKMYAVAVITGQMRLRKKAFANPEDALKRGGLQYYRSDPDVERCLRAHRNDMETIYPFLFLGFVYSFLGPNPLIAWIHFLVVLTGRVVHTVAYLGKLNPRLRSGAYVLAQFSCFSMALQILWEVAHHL
Protocol: Studies were conducted to characterize the inhibitory activity against recombinant mPGES-1 of the compounds synthesized in accordance with Examples 1-4, and disclosed herein.
Briefly, FreeStyle 293-F cells were cultured following manufacturer's manual in FreeStyle 293 expression medium on orbit rotate shaker in 8% CO2 incubator at 37° C. Cells were transfected with 1.5 μg/mL of mPGES-1/pcDNA3 construct using FreeStyle Max reagent at a cell density of 1×10^6 for 2 days. Transfected cells were collected, washed, and sonicated in TSES buffer (15 mM Tris-HCl, pH 8.0 plus 0.25 M sucrose, 0.1 mM EDTA and 1 mM DTT) on ice. The broken cells were first centrifuged at 12,500×g for 10 min. The supernatant was further centrifuged at 105,000×g for 1 hr at 4° C. The pellet was washed and homogenized in PBS buffer. The crude microsomal mPGES-1 preparation was aliquoted and stored at −80° C. The crude protein concentration was 8 mg/mL.
The enzyme activity assays were performed on ice in 1.5 ml microfuge tubes by using the expressed mPGES-1. The reaction mixture contained: 0.2 M Na2HPO4/NaH2PO4, pH 7.2, 10 μL; 0.1 M GSH, 2.5 μL; diluted microsomal enzyme (80 μg/mL), 1 μL; PGH2 (0.31 mM in DMF), 5 μL; 1 μL inhibitor; and H2O in a final reaction volume of 100 μL. PGH2 was stored in dry ice and used to initiate the reaction.
Compounds were incubated with the enzyme for 15 min at room temperature before the addition of cold PGH2 (1 μM final) to initiate the enzyme reaction. After 30 s, 10 μL of SnCl2 (40 mg/mL) in ethanol was added to stop the reaction. The nonenzymatic conversion of PGH2 to PGE2 was performed in the same buffer devoid of enzyme. The reaction mixture was placed on ice until PGE2 production was determined by the PGE2 enzyme immunoassay as described earlier. IC50 values of the inhibitors were calculated by using the GraphPad Prism 4.0 program. The results are set forth in the tables provided in Examples 7-10.

[3] = biological target: T1, mPGES-1; assay: mPGES-1 enzyme activity assay (PGE2 enzyme immunoassay), human enzyme; type: biochemical; parameters: made in house; host or cells: FreeStyle 293-F cells, crude microsomal preparation; settings: recombinant microsomal enzyme; means ± SD, triplicate; read-out: IC50 against mPGES-1, Human enzyme
Method in brief: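 Crude microsomal enzyme from transfected FreeStyle 293-F cells, preincubated 15 min at room temperature with compound in phosphate pH 7.2 with GSH. Reaction started with 1 μM PGH2, stopped after 30 s with SnCl2; non-enzymatic background without enzyme. PGE2 by enzyme immunoassay; IC50 computed.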

| SMILES | inhibition at 10 µM [2] | IC50 [3] | IC50 ([1]; literature refs 20-22, read-out: IC50 for inhibition of mPGES-1) | IC50 for inhibition of mPGES-1 (in words) ([1]; literature ref 20, probably competing with glutathione) |
| --- | --- | --- | --- | --- |
| CSc1ccc(/C=C2/C(C)=C(CC(=O)O)c3cc(F)ccc32)cc1 |  |  | 80 µM |  |
| CCCCC/C=C\C\C=C/C=C/C=C/[C@@H](SC[C@H](NC(=O)CC[C@H](N)C(=O)O)C(=O)NCC(=O)O)[C@@H](O)CCCC(=O)O [Leukotriene C4] |  |  |  | micromolar |
| CCCCOc1ccc(-c2nn(-c3ccc(Cl)cc3)cc2/C=C(/C#N)C(=O)O)cc1 [VII-14] | 30% | 190 ± 68 nM |  |  |
| CCCCCCOc1ccc(-c2nn(-c3ccc(Cl)cc3)cc2/C=C(/C#N)C(=O)O)cc1 [VII-15] | 48% | 83 ± 30 nM |  |  |
| CCCCCCCCOc1ccc(-c2nn(-c3ccc(Cl)cc3)cc2/C=C(/C#N)C(=O)O)cc1 [VII-17] | 29% | 90 ± 15 nM |  |  |
| N#C/C(=C/c1cn(-c2ccccc2)nc1-c1ccc(OCc2ccccc2)cc1)C(=O)O [VII-20] | 16% | 806 ± 162 nM |  |  |

Further lines, with some results ahead:

| inhibition at 10 µM [2] | IC50 [3] | SMILES | IC50 ([1]; literature refs 20-22, read-out: IC50 for inhibition of mPGES-1) | IC50 for inhibition of mPGES-1 (in words) ([1]; literature ref 20, probably competing with glutathione) |
| --- | --- | --- | --- | --- |
| 35% | 41 ± 5 nM | CCOc1ccc(-c2nn(-c3ccc(Cl)cc3)cc2/C=C2\SC(=O)N(CC(=O)O)C2=O)cc1 [VII-10] |  |  |
| 37% | 36 ± 11 nM | CCCCCCOc1ccc(-c2nn(-c3ccc(Cl)cc3)cc2/C=C2\SC(=O)N(CC(=O)O)C2=O)cc1 [VII-11] |  |  |
| 12% | 282 ± 83 nM | CCOc1ccc(-c2nn(-c3ccc(Cl)cc3)cc2/C=C(/C#N)C(=O)O)cc1 [VII-12] |  |  |
| 21% | 296 ± 68 nM | CCCCOc1ccc(-c2nn(-c3ccccc3)cc2/C=C(/C#N)C(=O)O)cc1 [VII-13] |  |  |
| 46% | 209 ± 42 nM | CCCCCCCCOc1ccc(-c2nn(-c3ccccc3)cc2/C=C(/C#N)C(=O)O)cc1 [VII-16] |  |  |
| 4.3% | 197 ± 32 nM | CCCCCCCCCCOc1ccc(-c2nn(-c3ccccc3)cc2/C=C(/C#N)C(=O)O)cc1 [VII-18] |  |  |
| 4.6% | 97 ± 15 nM | CCCCCCCCCCOc1ccc(-c2nn(-c3ccc(Cl)cc3)cc2/C=C(/C#N)C(=O)O)cc1 [VII-19] |  |  |
